Read-outs that look alike come from different tables or passages of the source.
Tests used:
[1] = no Na CPP
Description: Comparative in vitro experiments were carried out using a Seeded Crystal Growth Inhibition Assay. This assay involved the treatment of synthetic hydroxyapatite with the anti-tartar agent to be tested. The hydroxyapatite, treated with the anti-tartar agent was incubated at 37°C in a calcifying solution made up of calcium and phosphate at 1.5 mM and 4.5 mM respectively, pH 7.4. The samples were filtered to remove any calcium phosphate crystals and the free calcium in the filtrate was measured using Atomic Absorption Spectroscopy. The percent inhibition was calculated as follows: [formula]
The % inhibition is a measure of the degree of inhibition of calcium phosphate precipitation by the anti-tartar agent. The anti-tartar agents tested were: 1) tetrasodium pyrophosphate, Na₄P₂O₇ and 2) combinations of Na₄P₂O₇ and sodium caseinphosphopeptide, Na CPP, prepared as described above, which is a mixture rich in phosphopeptides of SEQ ID NO:1 and SEQ ID NO:2.
Experiments were carried out using a Seeded Crystal Growth Inhibition Assay described in Example 1. % inhibition was measured for NaCPP/Zinc sulphate mixtures.

[2] = system: Streptococcus sobrinus 6715-14; settings: 1.5% pyrophosphate anion; versus deionized water control
Description: A Microbial Mineralization Assay was carried out. Standard glass rods (3mm x 50mm) were attached to a circular piece of rubber and attached to a vial cap. The surface of the rods was etched. The rods were placed in a growth medium containing sucrose and Streptococcus sobrinus 6715-14. The microbe was grown on the rods for 24 hours at 37°C. The rods were then placed into a fresh growth medium for another 24 hours at 37°C. The rods were then taken out and treated with the anti-tartar agent to be tested. Treatment with only deionized water was used as control. The rods were then placed in a calcifying solution made up of a calcium and phosphate at levels of 1.5 mM and 5.0 mM respectively, at pH 7.4, supplemented with human saliva (about 25%). Six hours later, the treatment with the anti-tartar agent was repeated, and glass rods were placed in a calcifying solution. The procedure was continued for the next three days.
The rods were then removed from the calcifying solution, rinsed with water and placed in 0.6 N HCl solution. The solution containing the rods was heated at 60°C for 2 hours to dissolve calcified salts. The resulting acidic solution was filtered over 0.8 µm nylon membrane. The level of mineral formation was assessed via calcium and phosphorus analysis. The results were calculated by comparing the % reduction of mineral formation to that of the control.

Row | Compound | % Inhibition ([1]; Na4 P2 O7 0.1 mM) [%] | % Inhibition ([1]; Na4 P2 O7 0.15 mM) [%] | % Inhibition ([1]; Na4 P2 O7 0.2 mM) [%] | % reduction of mineral formation [2] [%]
1 | O=P([O-])([O-])OP(=O)([O-])[O-].[Na+].[Na+].[Na+].[Na+] [Na4 P2 O7, tetrasodium pyrophosphate] | 14 | 24 | 54 | 
2 | O=P(O)(O)OP(=O)(O)O [pyrophosphate anion] |  |  |  | 32
